Assay results as given in patent publication US20060003992A1, “New drug combinations” (Pharmacia & Upjohn Company, LLC, priority 2001, published 2006).

Tested on: mice
Experiment: conditioned avoidance response assay
Type: in vivo
Conditions: tested 20 min after
Description: Eleven mice per sample group are tested using a conditioned avoidance response assay, which can be used to predict the likelihood of possible detrimental side effects associated with the administration of a neuroleptic agent. The regimen included a pre-treatment with either saline or reboxetine (at a dosage of 6 mg/kg, i.p.) followed thirty minutes afterwards by treatment with either saline or raclopride (0.05 mg/kg or 0.10 mg/kg, s.c.). The mice are tested in the assay twenty minutes after administration of the saline or raclopride. The mean average avoidance as measured by the assay for the six different sample groups are as follows: […]

| Structure (SMILES) | mean average avoidance (saline pre-treatment, 30 min later raclopride 0.05 mg/kg s.c.) | mean average avoidance (saline pre-treatment, 30 min later raclopride 0.10 mg/kg s.c.) | mean average avoidance (reboxetine 6 mg/kg i.p. pre-treatment, 30 min later saline) |
| --- | --- | --- | --- |
| CCN1CCC[C@H]1CNC(=O)c1c(O)c(Cl)cc(Cl)c1OC [raclopride] | 90 | 70 | – |
| CCOc1ccccc1OC(c1ccccc1)C1CNCCO1 (stereo not drawn) [reboxetine] | – | – | 100 |
